# Assays:
# [1] = tested on: mammary tumors; test: DMBA-induced rat mammary tumor model, tumor volume and weight; type: in vivo, Sprague-Dawley rat; settings: 20 days
# Protocol: Female virgin Sprague-Dawley rats were obtained from Harlan (Houston) and were allowed to acclimate for 10 days, allowed access to food and water ad libitum, and maintained on a 12 h light/dark schedule. Mammary tumors were induced in 50±3 day old-rats by administering a single gavage dose of 20 mg DMBA in 0.5 ml corn oil. […] Tumor sizes were measured with calipers, and volumes were calculated by formula (length×width×depth)/6π and are expressed as percent control. […] All tumors were removed, weighed, and sectioned. One portion was frozen in liquid nitrogen for PCR analysis; one portion was placed in 10% formalin for histopathological analysis; and the majority was immediately homogenized for the preparation of microsomal and cytosolic fractions. Livers were perfused and weighed, and cytosol and microsomes were prepared as previously described.
# [2] = tested on: hepatic CYP1A1-dependent EROD activity; test: Hepatic EROD activity in DMBA-treated rats; settings: 0.4 mg/kg/day each
# Protocol: (§1) Female virgin Sprague-Dawley rats were obtained from Harlan (Houston) and were allowed to acclimate for 10 days, allowed access to food and water ad libitum, and maintained on a 12 h light/dark schedule. Mammary tumors were induced in 50±3 day old-rats by administering a single gavage dose of 20 mg DMBA in 0.5 ml corn oil. […] Tumor sizes were measured with calipers, and volumes were calculated by formula (length×width×depth)/6π and are expressed as percent control. One week after their last injection, rats were euthanized by asphyxiation. All tumors were removed, weighed, and sectioned. One portion was frozen in liquid nitrogen for PCR analysis; one portion was placed in 10% formalin for histopathological analysis; and the majority was immediately homogenized for the preparation of microsomal and cytosolic fractions. Livers were perfused and weighed, and cytosol and microsomes were prepared as previously described.
# [3] = Body and organ weights in DMBA-treated rats
# Protocol: as §1
# [4] = tested on: femurs; test: Bone effects in ovariectomized rats (femur weight and length); type: in vivo, Sprague-Dawley rat; settings: tamoxifen 0.4, 6-MCDF 0.8 mg/kg/day oral, 20 days
# Protocol: The ovariectomized rat is used as a model for osteoporosis.
# Rats were euthanized on day 21. After uteri were excised and processed, both left and right femurs were excised and the length measured with calipers. […] Wet weight was measured after residual connective tissue was stripped away. Dry weight was measured after the bones were dried for 12 ours at 130° C.
# [5] = tested on: uterus; test: Uterine wet weight in ovariectomized rats (Example 4); type: in vivo, Sprague-Dawley rat; settings: 0.4 mg/kg/day each oral, 20 days
# From the text: (§3) Methods: Rats were ovariectomized at 97 days of age, and treatments began at 117 days of age. […] Rats were euthanized on day 21.
# [6] = tested on: uterine peroxidase; test: Uterine peroxidase assay in ovariectomized rats (Example 4); type: in vivo, Sprague-Dawley rat; settings: 0.4 mg/kg/day each oral, 20 days
# From the text: (§2) Rats were euthanized on day 21.
# [7] = tested on: uterine cytosolic PR; test: Uterine cytosolic PR levels in ovariectomized rats (Example 4); type: in vivo, Sprague-Dawley rat; settings: 0.4 mg/kg/day each oral, 20 days
# From the text: as §2
# [8] = tested on: uterus; test: Uterine wet weight in ovariectomized rats (Example 6, Table 6); type: in vivo, Sprague-Dawley rat; settings: tamoxifen 0.4, 6-MCDF 0.8 mg/kg/day oral, 20 days
# From the text: as §2
# [9] = tested on: uterine peroxidase; test: Uterine peroxidase activity in ovariectomized rats (Example 6, Table 6); type: in vivo, Sprague-Dawley rat; settings: tamoxifen 0.4, 6-MCDF 0.8 mg/kg/day oral, 20 days
# From the text: as §2
# [10] = tested on: uterine progesterone receptor; test: Uterine progesterone receptor in ovariectomized rats (Example 6, Table 6); type: in vivo, Sprague-Dawley rat; settings: tamoxifen 0.4, 6-MCDF 0.8 mg/kg/day oral, 20 days
# From the text: as §2
# [11] = tested on: Ah receptor; settings: result in words; cited from earlier work
# [12] = tested on: ER; settings: 21 to 25 day-old female Sprague-Dawley rat uterus; cited from earlier work
# [13] = tested on: PR; settings: 21 to 25 day-old female Sprague-Dawley rat uterus; cited from earlier work
# [14] = tested on: rat uterus; settings: cited from earlier work
# [15] = tested on: mammary tumor; settings: cited from earlier work
# [16] = cited from earlier work
# [17] = tested on: CYP1A1; settings: cited from earlier work
# [18] = tested on: liver; settings: result in words; cited from earlier work
# [19] = tested on: CYP1A1; settings: result in words; cited from earlier work
# [20] = Body and organ weights (Examples 4 and 5)
# Protocol: as §3
# For the control vehicle and the MCDF vehicle ethanol was added (5% v/v) and then evaporated away.
# [21] = Body and organ weights (Example 6, Table 7)
# Protocol: For Table 7 and FIGS. 3 and 3B, exact aged virgin female Sprague-Dawley rats were dosed on day 55 in the afternoon with 20 mg/rat 7,12-dimethylbenz[a]anthacene in a volume of 0.5 ml/rat corn oil (rats weigh approximately 165 g, resulting in 120 mg/kg DMBA and 3 ml/kg corn oil).
# [22] = each drug 0.4 mg/kg/day by gavage, DMBA rats
smiles,measurement,setting,value
"Cc1cc(Cl)cc2c1oc1cc(Cl)cc(Cl)c12 [6-MCDF, 6-methyl-1,3,8-trichlorodibenzofuran]",Tumor Weight,"[1]; 0.4 mg/kg/day each, control 3.82 ± 1.18",1.68 ± 0.53 g
same,Tumor Wt (% Control),"[1]; 0.4 mg/kg/day each, control 100 ± 27.7",43.9 ± 12.8 % Control
same,Final Tumor Volume (% Control),"[1]; 0.4 mg/kg/day each, control 100 ± 31.5",33.6 ± 11.2 % Control
same,Final Tumor Volume,"[1]; 0.4 mg/kg/day each, control 2734 ± 956",918 ± 305 mm^3
same,% Inhibition tumor volume,[1]; [22],66.4%
same,% Inhibition tumor weight,[1]; [22],NS decrease
same,EROD activity,"[2]; 20 days, control 118 ± 40",140 ± 32 pmol/mg/min
same,induction of hepatic EROD activity,[2]; result in words,did not induce
same,Uterine Wt.,"[3]; 0.4 mg/kg/day each, 20 days, control 0.212 ± 0.017",0.230 ± 0.037 % BW
same,Spleen Wt.,"[3]; 0.4 mg/kg/day each, 20 days, control 0.257 ± .022",0.255 ± 0.017 % BW
same,Kidney weight,"[3]; 0.4 mg/kg/day each, 20 days, control 0.349 ± 0.007",0.361 ± 0.016 % BW
same,Liver weight,"[3]; 0.4 mg/kg/day each, 20 days, control 3.13 ± 0.12",3.49 ± 0.16 % BW
same,Final Body Weight,"[3]; 0.4 mg/kg/day each, 20 days, control 250 ± 5",247 ± 4 g
same,Heart weight,"[3]; rat, in vivo",0.405 ± 0.10 % BW
same,Dry bone weight,[4]; control 0.180 ± 0.005,0.183 ± 0.003 % body weight
same,Wet bone weight,[4]; control 0.347 ± 0.009,0.341 ± 0.008 % body weight
same,Bone length index,[4]; control 12.1 ± 0.4,12.17 ± 0.3 mm/body weight × 100
same,Uterine Wet Weight (% body wt),[5]; control 0.045 ± 0.002,0.060 ± 0.006 % body wt
same,Uterine Wet Weight,[5]; control 0.131 ± 0.006,0.180 ± 0.019 g
same,Uterine Peroxidase Assay (Abs/g uterus),[6]; per g uterus,1.14 ± 0.02 Fold Increase over Control
same,Uterine Peroxidase Assay (Abs/mg protein),[6]; per mg protein,1.05 ± 0.02 Fold Increase over Control
same,Uterine Peroxidase Assay (Abs/uterus),[6]; per uterus,1.56 ± 0.03 Fold Increase over Control
same,Uterine cytosolic PR levels (fmol/mg protein),[7]; control 308 ± 142,338 ± 31 fmol/mg protein
same,Uterine cytosolic PR levels (fmol/uterus),[7]; control 1100 ± 508,1925 ± 177 fmol/uterus
same,Uterine cytosolic PR levels (fmol/g uterus),[7]; control 8368 ± 3868,10693 ± 986 fmol/g uterus
same,Uterine wet weight (% body weight),[8]; control 0.0583 ± 0.0055,0.0454 % body weight
same,Uterine wet weight,[8]; control 0.171 ± 0.15,0.131 g
same,Uterine Peroxidase Activity (Absorbance/g uterus),[9]; per g uterus,0.88 ± 0.01 Fold Increase over control
same,Uterine Peroxidase Activity (Absorbance/mg protein),[9]; per mg protein,0.99 ± 0.01 Fold Increase over control
same,Uterine Peroxidase Activity (Absorbance/uterus),[9]; per uterus,0.57 ± 0.01 Fold Increase over control
same,Uterine Progesterone Receptor (fmol/mg protein),[10]; control 198 ± 15,152.9 ± 35 fmol/mg protein
same,Uterine Progesterone Receptor (fmol/uterus),[10]; control 765 ± 69,441.5 ± 100 fmol/uterus
same,Uterine Progesterone Receptor (fmol/g uterus),[10]; control 4462 ± 343,3985 ± 907 fmol/g uterus
same,binding to the Ah receptor,[11],bound to the Ah receptor
same,nuclear and cytosolic ER binding,[12],dose-dependent decrease
same,nuclear and cytosolic progesterone receptor (PR) binding,[13],dose-dependent decrease
same,"E2-induced hypertrophy, peroxidase activity, cytosolic ER and PR binding, EGF receptor and c-fos mRNA levels",[14]; rat uterus,inhibited
same,effect on TCDD-induced antiestrogenic activity,[14]; rat uterus,did not inhibit
same,antiestrogenicity in the rat uterus,[14]; result in words,antiestrogen in the rat uterus
same,growth inhibition,[15]; 5 mg/kg/wk,> 50%
same,mammary tumor growth,"[15]; 5, 10 or 25 mg/kg/wk, result in words",significantly inhibited
same,effect on TCDD induced toxic responses,[16]; co-treatment with TCDD,inhibiter TCDD induced toxic responses
same,toxicity,[16]; result in words,minimal toxicity
same,potency as inducer of hepatic CYP1A1 relative to TCDD (times less potent),"[17]; less potent than TCDD, same animals","> 157,000 times"
same,induction of CYP1A1,[17]; result in words,weak inducer of CYP1A1
same,liver morphology,[18],not accompanied by any significant changes
same,liver/body weight ratios,[18],not accompanied by any significant changes
same,induction of hepatic CYP1A1-dependent activity,[19],not accompanied by any significant changes
same,splenic wet weight,"[20]; 0.4 mg/kg/day oral, 20 days, ovariectomized rats, result in words",slight but significant increase
same,Rat weight at start of treatments,"[20]; Table 5, baseline, control 273.1 ± 8.1",274.7 ± 7.0 g
same,Spleen wet weight (% body wt),"[20]; Table 5, control 0.247 ± 0.007",0.298 ± 0.015 % body wt
same,kidney weight (% body wt),"[20]; Table 5, control 0.318 ± 0.010",0.332 ± .004 % body wt
same,Heart weight (% body wt),"[20]; Table 5, control 0.319 ± 0.006",0.344 ± 0.014 % body wt
same,Spleen wet weight,"[20]; Table 5, control 0.72O ± 0.012",0.887 ± 0.043 g
same,Kidney weight,"[20]; Table 5, control 0.933 ± 0.038",0.991 ± 0.026 g
same,Heart weight,"[20]; Table 5, control 0.935 ± 0.039",1.024 ± 0.037 g
same,Liver weight (% body wt),"[20]; Table 5, control 4.06 ± 0.23",4.37 ± 0.26 % body wt
same,Liver weight,"[20]; Table 5, control 11.88 ± 0.78",13.04 ± 0.87 g
same,Rat weight prior to euthanasia,"[20]; Table 5, control 293.2 ± 10.9",298.3 ± 5.0 g
same,Rat weight at start of treatments,"[21]; Table 7, baseline, control 255 ± 3",257 ± 4 g
same,Spleen weight (% body weight),"[21]; Table 7, control 0.289 ± 0.018",0.265 ± 0.014 % body weight
same,Kidney weight (% body weight),"[21]; Table 7, control 0.334 ± 0.010",0.352 ± 0.015 % body weight
same,Heart weight (% body weight),"[21]; Table 7, control 0.360 ± 0.010",0.356 ± 0.012 % body weight
same,Rat weight prior to euthanasia,"[21]; Table 7, control 295 ± 11",289 ± 7 g

# Reference: patent US6136845A (The Texas A&M University System, priority 1998, dated 2000)
